Results on 51 molecules are retold here after PubChem BioAssay AID493002 (Sanford-Burnham Center for Chemical Genomics, 2010).

pIC50: −log10 of the molar value. The source made the active and inactive calls. The rule behind the calls is not given here. Bounds are passed on as bounds.

The assay deals with S. cerevisiae tim23-1 mutant growth, luminescence. The experiment in a line: potency against tim23-1 yeast growth – luminescence, uHTS hits, dose response (AID 493002).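 Note: yeast grown roughly 22 hours at 25 °C before the luminescence read.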
Regarding `O=C1NC(=S)SC1=C1CCCCCC1`, the negative-log IC50 (pIC50) was 5.11. On the same count and under the same terms, for `O=C(Nc1ccc(-c2cn3c(n2)SCC3)cc1)c1ccco1` the value was 5.05; for `COc1cc(/C=C/C(=O)OCC(=O)c2ccc(OC(F)F)cc2)ccc1O`, 4.84; for `CCSc1ncc(/C=N/Nc2ccc(Cl)cc2)n1C`, 5.23.

In the case of `COc1ccc(C(C[N+](=O)[O-])c2c(-c3ccccc3)cc3ccccn23)cc1` (stereo unspecified), the pIC50 is 5.05. Still for that read-out and setting: to `Nc1ccc(O)c2c1C(=O)c1ccccc1C2=O` belongs 4.95; to `Cc1cc(NC(=O)c2ccco2)sc1C`, 4.74; to `CCc1cccc2c(C(=O)CCl)c[nH]c12`, 5.03.

On to `Nc1nc(Nc2ccccc2)sc1C(=O)c1ccccc1`, for which the pIC50 is 4.68. Take `Cc1nc2scc(C)n2c(=O)c1S(=O)(=O)Nc1ccc(N2CCOCC2)cc1`: the pIC50 is 5.18. Still for that read-out and setting: for `Cc1ccc2nc(N3CCN(C=O)CC3)nc(-c3ccccc3)c2c1` the value was 4.92; for `CN=c1scc(-c2cccs2)n1/N=C/c1ccc(O)c(O)c1O`, 4.98; for `Cc1ccc(NC(=O)c2nc(S(=O)(=O)Cc3ccccc3C)ncc2Cl)cc1C`, 5.43. On the same count and under the same terms, to `CCOc1ccc(N=C(C)C2=C(O)c3ccccc3C2=O)cc1` belongs 4.95. Still for that read-out and setting: to `N#C/C(N)=C(/C#N)N=Cc1cccc(Cl)c1` belongs 5.05; to `COc1ccc(C(=O)COC(=O)c2cncc(Br)c2)cc1`, 5.00; to `C/C(=N\Nc1cc(N2CCCCC2)nc(C)n1)c1ccc(Br)cc1`, 4.85. With `COc1cccc2c1C(=O)C=C(C)C2=O`, the pIC50 was 5.27. On the same count and under the same terms, for `Cc1cccc(CN2C(=O)/C(=C\c3ccc(C(=O)NCCCN4CCN(C)CC4)cc3)Oc3ccccc32)c1` the value was 4.76; for `CC(C)(C)c1csc(NC(=O)c2ccc(Br)o2)n1`, 5.04; for `O=C(Nc1ccn(Cc2ccc(Cl)cc2)n1)c1ccc2c(c1)OCO2`, 4.95. Turning to `Cc1ccccc1[C@@]1(C)ON(c2ccccc2C(F)(F)F)C1=O`, the pIC50 was 5.15. Still for that read-out and setting: to `c1ccc(-c2cc3ccccc3cn2)cc1` belongs 5.08.

In the case of `O=C1NN=C(c2ccc(Cl)cc2)CC1c1cccc(Br)c1` (stereo unspecified), the IC50 is > 100 µM (inactive). With `COc1ccc2oc(/C=C/N(C)C)c(C(=O)c3ccc(Cl)cc3)c2c1`, the pIC50 is 4.82. The same measure, in the same setting: for `COc1cc2c3c(c1)C(C)CC(C)(C)N3C(=O)C2=O` (stereo unspecified) the value was 4.57.

In the case of `CCOC(=O)c1ccc(NC(=O)CSc2nc(=O)n3cccc(C)c3n2)cc1`, the pIC50 was 4.89. On the same count and under the same terms, to `CC1(C)c2cc(Cl)ccc2-n2c1cc(O)c(-c1ccccc1)c2=O` belongs 4.92. Same read-out and setting: for `Cc1ccc(C(=O)NC2=NCCS2)cc1Cl` the value was 4.78; for `O=Cc1sc(Nc2ccccc2)nc1Cl`, 4.93. The same measure, in the same setting: to `O=C(N/N=C/c1cc(Br)cc(Br)c1O)c1cccc(N2CCCC2=O)c1` belongs 5.20; to `CN(C)/C=C1/C=C(c2ccccc2)OC1=O`, 4.92. Turning to `COc1ccc(C(=O)Nc2nc3ccccc3s2)c(OC)c1`, the negative logarithm of the IC50 (pIC50) was 5.23. Turning to `CSc1nnc(C(C)(C)C)c(=O)n1/N=C/c1ccccc1`, the pIC50 was 4.87. Consider `O=C(Nc1ccc(-c2ccc(N3CCCCC3)nn2)cc1)c1ccco1`, for which the pIC50 is 5.00. On to `O=C1c2cccc3c(Cl)ccc(c23)C(=O)N1O`, for which the pIC50 is 5.02.

`CCc1sc(C(=O)Nc2ccc3c(c2)OCO3)cc1C`: the pIC50 is 4.72. Still for that read-out and setting: for `O=C(N/N=C/c1ccco1)c1cc2ccccc2o1` the value was 5.07; for `Cc1ccc(/C=N/NC(=O)c2ccc3c(c2)OCCO3)s1`, 4.46. Still for that read-out and setting: to `Cc1ccc(NC(=O)CN2C(=O)CN=C(c3ccccc3)c3cc(Cl)ccc32)cc1` belongs 4.88; to `N#C/C(=C\c1cc(Cl)cc(Cl)c1O)C(=O)NC1CCCCC1`, 5.00; to `Cc1[nH][nH]c(=O)c1C(c1ccc(-c2ccc(F)cc2)o1)c1c(C)[nH][nH]c1=O`, 5.11. Regarding `O=C(NCc1cccnc1)/C(=C\c1ccc(-c2ccc(Br)cc2)o1)S(=O)(=O)c1ccccc1`, the pIC50 was 5.37. Take `CN1C(=O)C(=Cc2ccccc2OS(=O)(=O)c2ccccc2)C(=O)N(C)C1=O`: the pIC50 was 5.18.

With `CCC(C)C(=O)Nc1nc2ccc(OC)cc2s1` (stereo unspecified), the pIC50 is 4.74.

Take `Cn1c(-c2sc3ccccc3c2Cl)n[nH]c1=S`: the pIC50 is 5.12. For `c1ccc(-c2ncc(-c3ccn[nH]3)s2)cc1`, the pIC50 was 5.22. The same measure, in the same setting: for `CC(C)n1cc(NC(=O)c2cc(-c3ccccc3)on2)cn1` the value was 5.11; for `CCC(C)NC(=O)c1c(N)n(CCCOC)c2nc3ccccc3nc12` (stereo unspecified), 4.85. With `CC1c2[nH]c3ccccc3c2CCN1C(=O)Nc1ccccc1` (stereo unspecified), the pIC50 is 4.92.

`CS(=O)(=O)c1ccc2nc(NC(=O)c3ccco3)sc2c1`: the negative logarithm of the IC50 (pIC50) is 4.71.

Usually pIC50 stands for −log10 of the IC50, conventionally taken in molar units. A word on the IC50: it is the concentration needed to halve the response being measured.
